# Patent US10611750B2, “Tetrahydroquinoline compositions as bet bromodomain inhibitors” (FORMA Therapeutics, Inc., priority 2013, dated 2020)
# Legend:
# [1] = target: T1, BRD4 Bromodomain 1 (BRD4 BD1) (Homo sapiens, UniProt O60885); assay: AlphaScreen binding assay, BRD4 BD1; conditions: His-tagged BRD4 BD1 50 nM, biotinylated H4 (1-21) K5/8/12/16 tetra-acetylated peptide 50 nM, compounds listed under IC50 range headings
# T1 construct: 44-168 and BRD4 BD2
# Method in brief: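 An AlphaScreen competition format was used with His-BRD4 BD1 or BD2 and biotin-H4 K5/8/12/16-acetyl peptide, each at matched final levels of 50 nM (BD1) or 100 nM (BD2). Incubation in HEPES/NaCl buffer with 0.1% BSA and 0.01% Triton X-100 ran ≥1 h before IC50 determination.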
# [2] = tested on: acute myelocytic leukemia (AML) cell line MV4-11; assay: Oncology cell growth assay (3-day proliferation, CellTiter-Glo); assay type: cell-based; conditions: Homo sapiens, MV4-11, 72 h, MV4-11 cells, 3000 cells/well, compounds listed under IC50 range headings, read-out: MV411 IC50 (gIC50, inhibition of proliferation)
# Method in brief: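 A 3-day proliferation test used MV4-11 cells seeded at 3000 per well with eight compound concentrations (10 μM top, 3-fold dilution) at 37° C in 5% CO2. CellTiter-Glo luminescence defined viable cell signal. A four-parameter logistic curve against DMSO and background wells gave the gIC50.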
smiles,measurement,setting,value
"COC(=O)N1c2ccc(-c3cnn(C4CS(=O)(=O)C4)c3)c(Oc3ccc(F)cc3)c2CC[C@@H]1C [I-223, methyl (S)-6-(1-(1,1-dioxidothietan-3-yl)-1H-pyrazol-4-yl)-5-(4-fluorophenoxy)-2-methyl-3,4-dihydroquinoline-1(2H)-carboxylate]",IC50,[1],100 to 1000 nM
same,IC50,[2],< 500 nM
"CNC(=O)c1nc(-c2ccc3c(c2OC2CCC2)CC[C@H](C)N3C(=O)OC)cs1 [I-130, (S)-methyl 5-cyclobutoxy-2-methyl-6-(2-(methylcarbamoyl)thiazol-4-yl)-3,4-dihydroquinoline-1(2H)-carboxylate]",IC50,[1],100 to 1000 nM
same,IC50,[2],< 500 nM
"COC(=O)N1c2ccc(-c3cnn(C4CC(O)C4)c3)c(OC3CCC3)c2CC[C@@H]1C (stereo partly drawn) [I-302, (S)-methyl 5-cyclobutoxy-6-(1-(3-hydroxycyclobutyl)-1H-pyrazol-4-yl)-2-methyl-3,4-dihydroquinoline-1(2H)-carboxylate]",IC50,[1],100 to 1000 nM
same,IC50,[2],< 500 nM
"COC(=O)N1c2ccc(-c3cnn(C4CCCS(=O)(=O)C4)c3)c(Oc3ccc(F)cc3)c2CC[C@@H]1C (stereo partly drawn) [I-222, Methyl (2S)-6-(1-(1,1-dioxidotetrahydro-2H-thiopyran-3-yl)-1H-pyrazol-4-yl)-5-(4-fluorophenoxy)-2-methyl-3,4-dihydroquinoline-1 (2H)-carboxylate]",IC50,[1],100 to 1000 nM
same,IC50,[2],< 500 nM
"C[C@H]1CCc2c(ccc(-c3cn(C)nn3)c2Oc2ccc(F)cc2)N1C(=O)C1CC1 [I-236, (S)-cyclopropyl(5-(4-fluorophenoxy)-2-methyl-6-(1-methyl-1H-1,2,3-triazol-4-yl)-3,4-dihydroquinolin-1 (2H)-yl)methanone]",IC50,[1],100 to 1000 nM
same,IC50,[2],< 500 nM
"COC(=O)N1c2ccc(-c3cnn(C4CCNCC4)c3)c(Oc3cccc(OC)n3)c2CC[C@@H]1C [I-335, (S)-methyl 5-(6-methoxypyridin-2-yloxy)-2-methyl-6-(1-(piperidin-4-yl)-1H-pyrazol-4-yl)-3,4-dihydroquinoline-1(2H)-carboxylate]",IC50,[1],100 to 1000 nM
same,IC50,[2],< 500 nM
"COc1cccc(Oc2c(-c3cnn(C4CCNCC4)c3)ccc3c2CC[C@H](C)N3C(=O)C2CC2)c1 [I-195, (S)-cyclopropyl(5-(3-methoxyphenoxy)-2-methyl-6-(1-(piperidin-4-yl)-1H-pyrazol-4-yl)-3,4-dihydroquinolin-1(2H)-yl)methanone]",IC50,[1],100 to 1000 nM
same,IC50,[2],< 500 nM
"COC(=O)N1c2ccc(-c3cnn(C4CCNCC4)c3)c(Oc3ccc(F)c(F)c3)c2CC[C@@H]1C [I-176, (S)-methyl 5-(3,4-difluorophenoxy)-2-methyl-6-(1-(piperidin-4-yl)-1H-pyrazol-4-yl)-3,4-dihydroquinoline-1(2H)-carboxylate]",IC50,[1],100 to 1000 nM
same,IC50,[2],< 500 nM
"C[C@H]1CCc2c(ccc(-c3cn(C)nn3)c2Oc2cc(F)ccc2F)N1C(=O)C1CC1 [I-318, (S)-cyclopropyl(5-(2,5-difluorophenoxy)-2-methyl-6-(1-methyl-1H-1,2,3-triazol-4-yl)-3,4-dihydroquinolin-1(2H)-yl)methanone]",IC50,[1],100 to 1000 nM
same,IC50,[2],< 500 nM
"COC(=O)N1c2c(F)cc(-c3cn[nH]c3)c(OC3CCC3)c2CC[C@@H]1C [I-72, (S)-methyl 5-cyclobutoxy-8-fluoro-2-methyl-6-(1H-pyrazol-4-yl)-3,4-dihydroquinoline-1(2H)-carboxylate]",IC50,[1],100 to 1000 nM
same,IC50,[2],< 500 nM
"CC(=O)N1c2ccc(-c3cn(C)nn3)c(Oc3ccccc3)c2CC[C@@H]1C [I-233, (S)-1-(2-methyl-6-(1-methyl-1H-1,2,3-triazol-4-yl)-5-phenoxy-3,4-dihydroquinolin-1(2H)-yl)ethanone]",IC50,[1],100 to 1000 nM
same,IC50,[2],< 500 nM
"Cc1cc(Oc2c(-c3cnn(C4CCNCC4)c3)ccc3c2CC[C@H](C)N3C(=O)C2CC2)cc(C)n1 [I-330, (S)-cyclopropyl(5-(2,6-dimethylpyridin-4-yloxy)-2-methyl-6-(1-(piperidin-4-yl)-1H-pyrazol-4-yl)-3,4-dihydroquinolin-1(2H)-yl)methanone]",IC50,[1],100 to 1000 nM
same,IC50,[2],< 500 nM
"C[C@H]1CCc2c(OC3CCC3)c(-c3cn(C)nn3)cc(F)c2N1C(=O)C1CC1 [I-124, (S)-(5-cyclobutoxy-8-fluoro-2-methyl-6-(1-methyl-1H-1,2,3-triazol-4-yl)-3,4-dihydroquinolin-1 (2H)-yl)(cyclopropyl)methanone]",IC50,[1],100 to 1000 nM
same,IC50,[2],500 to 1000 nM
"CC(=O)N1c2c(F)cc(-c3cnn(C4CC4)c3)c(Oc3ccccc3)c2CC[C@@H]1C [I-241, (S)-1-(6-(1-cyclopropyl-1H-pyrazol-4-yl)-8-fluoro-2-methyl-5-phenoxy-3,4-dihydroquinolin-1(2H)-yl)ethanone]",IC50,[1],100 to 1000 nM
same,IC50,[2],< 500 nM
"CC(=O)N1c2c(F)cc(-c3cn(C)nn3)c(OC3CCC3)c2CC[C@@H]1C [I-126, (S)-1-(5-cyclobutoxy-8-fluoro-2-methyl-6-(1-methyl-1H-1,2,3-triazol-4-yl)-3,4-dihydroquinolin-1(2H)-yl)ethanone]",IC50,[1],1000 to 10000 nM
same,IC50,[2],> 1000 nM
"COC(=O)N1c2ccc(-c3cnn(C4CNC4)c3)c(Oc3ccc(F)cc3F)c2CC[C@@H]1C [I-266, (S)-methyl 6-(1-(azetidin-3-yl)-1H-pyrazol-4-yl)-5-(2,4-difluorophenoxy)-2-methyl-3,4-dihydroquinoline-1(2H)-carboxylate]",IC50,[1],100 to 1000 nM
same,IC50,[2],< 500 nM
"COC(=O)N1c2ccc(-c3cnn(C4CCNC(=O)C4)c3)c(Oc3ccc(F)cc3)c2CC[C@@H]1C (stereo partly drawn) [I-297, (2S)-methyl 5-(4-fluorophenoxy)-2-methyl-6-(1-(2-oxopiperidin-4-yl)-1H-pyrazol-4-yl)-3,4-dihydroquinoline-1(2H)-carboxylate]",IC50,[1],100 to 1000 nM
same,IC50,[2],< 500 nM
"COC(=O)N1c2ccc(-c3csc(N4CC(O)C4)n3)c(OC3CCC3)c2CC[C@@H]1C [I-317, (S)-methyl 5-cyclobutoxy-6-(2-(3-hydroxyazetidin-1-yl)thiazol-4-yl)-2-methyl-3,4-dihydroquinoline-1(2H)-carboxylate]",IC50,[1],100 to 1000 nM
same,IC50,[2],500 to 1000 nM
"CC(=O)N1c2c(F)cc(-c3cn[nH]c3)c(OC3CCC3)c2CC[C@@H]1C [I-74, (S)-1-(5-cyclobutoxy-8-fluoro-2-methyl-6-(1H-pyrazol-4-yl)-3,4-dihydroquinolin-1(2H)-yl)ethanone]",IC50,[1],1000 to 10000 nM
same,IC50,[2],500 to 1000 nM
"C[C@H]1CCc2c(ccc(-c3cnn(C4CCNCC4)c3)c2Oc2cccc(F)c2F)N1C(=O)C1CC1 [I-267, (S)-cyclopropyl(5-(2,3-difluorophenoxy)-2-methyl-6-(1-(piperidin-4-yl)-1H-pyrazol-4-yl)-3,4-dihydroquinolin-1(2H)-yl)methanone]",IC50,[1],100 to 1000 nM
same,IC50,[2],< 500 nM
"C[C@H]1CCc2c(ccc(-c3ccnn3C3CCNCC3)c2Oc2ccccc2)N1C(=O)C1CC1 [I-308, cyclopropyl((2S)-2-methyl-5-phenoxy-6-(1-(piperidin-4-yl)-1H-pyrazol-5-yl)-3,4-dihydroquinolin-1(2H)-yl)methanone]",IC50,[1],≥ 10000 nM
same,IC50,[2],> 1000 nM
"C[C@H]1CCc2c(ccc(-c3ncc(C4CCNCC4)[nH]3)c2Oc2ccccc2)N1C(=O)C1CC1 [I-329, (S)-cyclopropyl(2-methyl-5-phenoxy-6-(5-(piperidin-4-yl)-1H-imidazol-2-yl)-3,4-dihydroquinolin-1(2H)-yl)methanone]",IC50,[1],100 to 1000 nM
same,IC50,[2],< 500 nM
